Values joined by “and” are separate entries in the source; they are usually repeats but may differ in a detail not shown here. Identical values can stand only once. “Also recorded” adds a separate entry of the source. Like-named read-outs stand apart in the source and are kept apart here. Each block holds one compound with its values, some of them ahead of it.
How the values were obtained:
TMEM175 [1] = target: T1, TMEM175 (Homo sapiens, UniProt Q9BSA9); assay: Whole-cell automated patch-clamp (APC) Cs+ flux assay, SyncroPatch 384i, HEK293 overexpressing TMEM175; type: cell-based
T1 sequence (Q9BSA9 1-504): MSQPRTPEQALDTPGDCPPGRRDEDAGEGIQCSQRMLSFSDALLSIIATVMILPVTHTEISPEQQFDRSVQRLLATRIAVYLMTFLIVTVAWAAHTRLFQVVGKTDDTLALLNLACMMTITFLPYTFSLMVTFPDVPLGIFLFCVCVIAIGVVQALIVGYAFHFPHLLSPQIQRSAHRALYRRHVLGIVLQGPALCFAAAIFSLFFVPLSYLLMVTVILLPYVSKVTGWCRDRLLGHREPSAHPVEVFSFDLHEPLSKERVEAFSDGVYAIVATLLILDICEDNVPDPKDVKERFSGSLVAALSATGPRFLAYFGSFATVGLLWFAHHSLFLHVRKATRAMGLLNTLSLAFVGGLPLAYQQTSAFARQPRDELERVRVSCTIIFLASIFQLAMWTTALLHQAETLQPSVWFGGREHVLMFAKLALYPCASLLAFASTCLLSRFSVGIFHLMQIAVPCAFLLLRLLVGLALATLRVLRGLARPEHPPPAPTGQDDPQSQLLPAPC
Method: To validate the APC assay, we compared currents between TMEM175-overexpressing cells and control HEK293 UT cells. […] In our compound application protocol, which was used to evaluate compound potencies, we consistently administered tool compounds to assess their impact on TMEM175 activity (Figure 7C).
The voltage protocol generation and data collection were performed with PatchControl384 v1.9.0 and analyzed with DataControl384 v2.2.0. A multi-hole, medium resistance chip with four patch-clamp holes per well was used for recording.
DMSO remained constant at 0.2% and BSA at 0.05% in the external solution throughout the assay, if not stated otherwise.
The voltage protocol applied for the investigation of the tool compounds (Figure 7) consisted of a 500 ms ramp from −80 mV to +80 mV, followed by a 400 ms step from −80 mV to +80 mV before returning to the holding potential of 0 mV (Figure 7B). The maximum outward current amplitude obtained at +80 mV from the ramp section was used for analysis. To investigate the blinded test compounds (Figure 8), an alternative voltage protocol was applied. […] The maximum outward current amplitude obtained at 0 mV from the voltage step section was used for analysis. In both voltage protocols, voltage sweeps were repeated every 10 s and currents sampled at 10 kHz.
The application protocol for agonists consisted of two additions of extracellular physiological solution for a minimum of 3 min, followed by the external application of the test compound for a minimum of 2 min (Figure 7C).
Currents recorded after compound addition were normalized to the baseline current before compound addition, averaged, and plotted over the compound concentration to determine the EC50 and IC50 values.

[2] = system: control lysosomes purified from HEK293 cells expressing endogenous TMEM175; assay: SSME off-target compound effects on control lysosomes (SURFE2R N1)
TMEM175 [3] = target: T1, TMEM175; assay: SSME K+ flux compound assay on purified lysosomes overexpressing TMEM175 (SURFE2R 96SE); type: biochemical
Method: In brief, compound measurements using SSME are performed in a three-step process (Figure 6B). First, TMEM175-mediated K^+ translocation is measured through 50 mM K^+ concentration jumps. This represents the baseline current of TMEM175 activity (I0). […] Third, the activation through a 50 mM K^+ concentration jump is repeated, this time in the presence of the compound to record the modulated TMEM175 current (I). In this process, each individual sensor of the 96-well sensor plate is only exposed to a single concentration of the compound. The relative current amplitude I/I0 is used as a measure of the compound effect and averaged across sensors.
We applied 50 mM K^+ concentration jumps in the absence and presence of different compound concentrations to derive information about compound effects on K^+ flux through TMEM175; (B) Time dependence of recorded peak current amplitudes for the complete workflow, which involves multiple sequential measurements. […] The recording of each sensor well starts with the application of a control measurement, rinsing non-activating solution across the sensor (baseline recording). Afterwards, we performed three solution exchange measurements from 50 mM NaCl to 50 mM KCl to measure K^+ flux through TMEM175 (baseline TMEM175 current, I0). We then rinsed the sensor with non-activating solution containing the compound at a given concentration, followed by incubation of 15 min to equilibrate the sensors with the compound. Subsequently, the solution exchange from 50 mM NaCl to 50 mM KCl is repeated twice, but in the presence of the given compound concentration to determine the modulated peak current I. Afterwards, we repeated the measurement in the absence of the compound three times (wash-out) to recover the non-modulated TMEM175 current. We subtracted the average artifact current recorded with control lysosomes from I and I0 (Figure 1K), without considering off-target effects of the tested compound. […] Success rates were determined based on the QC criteria provided in the Methods section. […] We determined average values, AVGpos and AVGneg, and standard deviations, SDpos and SDneg, of the recorded peak currents. […] Error bars represent the SEM obtained from automated data analysis using DataControl96, based on variations of the currents obtained with the TMEM175 sample. Each compound concentration was recorded with at least N = 8 sensors. […] Imin was always fixed to 0 for inhibitors or 1 for enhancers, as indicated. […] A total of 50 µL of 0.1 mM octadecanethiol in isopropanol was added to each sensor well, following incubation for 30 min at room temperature to form an alkanethiol monolayer on the sensor surface. Subsequently, the sensors were washed twice with isopropanol and three times with ddH2O, before dry-tapping on a tissue. The subsequent process of sensor coating with lipid and lysosomes was carried out manually for the SURFE^2R N1 and automated with the SURFE^2R 96SE serving as a pipetting robot. In both cases, 1.5 µL of 7.5 mg/mL 1,2-diphytanoyl-sn-glycero-3-phosphocholine (DPhPC) in n-decane was added to the center of the circular gold surface, followed by the addition of 50 µL of non-activating solution to form the SSM. The composition of the non-activating solution was adjusted for each experiment (Table 2). […] SSM-coated 96-well sensor plates were stored at −80 °C before use.

TMEM175 [4] = settings: cited from earlier work; for IC50: read-out: IC50, literature
TMEM175 [5] = target: T1, TMEM175; assay: SSME K+ flux compound assay on purified lysosomes overexpressing TMEM175 (SURFE2R 96SE); type: biochemical; remark: listed apart in the source
[6] = Table 4 fit, currents normalized to current before compound
[7] = from dose-response fit, Figure 8

Structure (SMILES): Nc1ccncc1 [4-AP, 4-aminopyridine]
Signal block, APC (TMEM175 [1]; 1 mM 4-AP, over 125 plates): 73 ± 14%
Off-target signal potentiation on control lysosomes ([2]; 10 mM 4-AP): +380 pA
Artifact current of control lysosomes in presence of compound ([2]; 10 mM 4-AP, 50 mM K+ jump): −0.69 ± 0.37 nA
Off-target effect compared to effect on TMEM175 lysosomes ([2]; 10 mM 4-AP, opposite direction): ~ 8%
Effect on current of control lysosomes, H+ influx (pH jump) ([2]; 10 mM 4-AP, ΔpH 3.0): did not affect
Effect of 10 mM compound on TMEM175 K+ current, SSME (TMEM175 [3]; 50 mM K+ jump): full block

Structure (SMILES): CCCCC1(C2CCCC2)Cc2cc(OCCCC(=O)O)c(Cl)c(Cl)c2C1=O (centres unmarked) [DCPIB]
Effect of K+ concentration (driving force) on apparent EC50 (TMEM175 [5]; 2, 5, 10, 50 mM K+, 3, 10, 30 µM DCPIB): not affected
EC50 (TMEM175 [1]): 16.7 µM
Control current in presence of compound ([2]; 20 µM DCPIB): +0.69 ± 0.41 nA
Off-target effect compared to effect on TMEM175 lysosomes ([2]; 20 µM DCPIB): ~ 35%
EC50 (TMEM175 [3]; tool enhancers, K+ flux, 50 mM K+ jump, pH 7.6, 0 mV, artifact-corrected, read-out: Half saturation (EC50), SSME): 9.6 µM
Increase in K+ flux through TMEM175, literature (TMEM175 [4]; 50 µM, +80 mV, ref [6]): eight-fold

EC50 (TMEM175 [5]; 50 mM K+ jump, not corrected for artifacts or off-target effects): 2.9 ± 2.3 µM
n (Hill coefficient), APC (TMEM175 [1]; Table 4 fit): 1.17 ± 0.38
Imax − Imin (nA), APC (TMEM175 [1]; [6]): 2.45 ± 1.02 nA
Current potentiation, APC (TMEM175 [1]; [7]): 245 ± 102% and 345 ± 102%
EC50 (TMEM175 [1]; test-compound voltage protocol, outward current at 0 mV, not corrected for off-target effects, read-out: EC50 (µM), APC): 62 µM and 61.8 µM
n (Hill coefficient), SSME (TMEM175 [3]; Table 4 fit): 0.89 ± 0.6
Imax − Imin (nA), SSME (TMEM175 [3]; [6]): 0.09 ± 0.04 ^1 nA
Potentiation, SSME (TMEM175 [3]; [7]): 9 ± 4%
Structure (SMILES): CCOC(=O)C1=C(N)Oc2ccc(Cl)cc2C1C(C#N)C(=O)OCC (centres unmarked) [SC-79]
Control current in presence of compound ([2]; 30 µM SC-79): −0.64 ± 0.27 nA
Increase in TMEM175-mediated K+ flux, literature (TMEM175 [4]; 10 µM, +80 mV, ref [48]): two-fold
Effect on TMEM175 in whole-cell patch-clamp, literature (TMEM175 [4]; ref [6]): did not find any effect

Signal enhancement, APC (TMEM175 [1]; 0.5 mM ZnCl2, over 125 plates): 301 ± 94%
Relative current, APC (TMEM175 [1]; enhancers, (50 µM), relative to baseline current (100%)): 400 ± 40% (50 µM)
EC50 (TMEM175 [1]; tool compounds, Cs+ flux, outward current at +80 mV, 0.05% BSA, read-out: Half saturation (EC50), APC): 102 µM
Effect of 10 mM compound on TMEM175 K+ current, SSME (TMEM175 [3]; 50 mM K+ jump): full block
IC50 in SSME relative to literature value (higher) (TMEM175 [3]; 4-AP vs largest literature value for K+ flux, zinc vs literature value): 50 fold
IC50 (TMEM175 [3]; K+ flux, 50 mM K+ jump, pH 7.6, 0 mV, external (cytosolic side) application, artifact-corrected, read-out: Half saturation (IC50), SSME): 1.53 mM
Relative current, SSME (TMEM175 [3]; at 10 mM (highest concentration), relative to TMEM175 baseline current (100%)): 19.2 ± 4.6% (10 mM)
Structure (SMILES): [Cl-].[Cl-].[Zn+2] [Zn, ZnCl2]
Effect of raising zinc up to 10 mM, APC (TMEM175 [1]; 0.5 mM to 10 mM, listed as zinc): could not find any changes; also recorded: without further impacting the recorded currents
Off-target effect on control lysosomes ([2]; zinc, two highest concentrations): off-target inhibition
IC50 (TMEM175 [4]; whole-organelle patch-clamp, ref [1]): 38 ± 13 µM
